ChEMBL document CHEMBL5523713, “Development of novel N-aryl-2,4-bithiazole-2-amine-based CYP1B1 degraders for reversing drug resistance” (Eur J Med Chem, 2024)
The source made the active and inactive calls. The calls are words filed in the database; no cut-off is given here.

How the values were obtained:
[1] = biological target: T1, von Hippel-Lindau disease tumor suppressor/Cytochrome P450 1B1 (Homo sapiens, UniProt Q16678+P40337); experiment: PROTAC activity at VHL/CYP1B1 in human A549/Taxol cells assessed as reduction in CYP1B1 level at 100 nM incubated for 24 hrs by Western blotting analysis; format: ADME, cell-based; conditions: 0.1 µM
[2] = tested on: A549/TR; experiment: Downregulation of P-glycoprotein expression in human A549/Taxol cells at 0.1 to 10 nM by Western blotting analysis; format: functional, cell-based; conditions: dose 0.1-10 nM
[3] = tested on: A549/TR; experiment: Reversal of taxol resistance in human A549/Taxol cells assessed as decrease in cell viability at 0.1 to 10 nM incubated for 48 to 72 hrs by MTT assay; format: functional, cell-based; conditions: dose 0.1-10 nM, time 48-72 hrs
[4] = biological target: T1, von Hippel-Lindau disease tumor suppressor/Cytochrome P450 1B1; experiment: PROTAC activity at VHL/CYP1B1 in human A549/Taxol cells assessed as degradation by measuring fold change in remaining CYP1B1 level incubated for 24 hrs by Western blotting analysis (reference value: 1); format: ADME, cell-based
[5] = biological target: Protein cereblon/Cytochrome P450 1B1 (Homo sapiens, UniProt Q16678+Q96SW2); experiment: PROTAC activity at CRBN/CYP1B1 in human A549/Taxol cells assessed as degradation by measuring fold change in remaining CYP1B1 level incubated for 24 hrs by Western blotting analysis (reference value: 1); format: ADME, cell-based
[6] = tested on: A549/TR; experiment: Effect on paxillin protein level in human A549/Taxol cells at 0.1 to 10 nM incubated for 24 hrs by Western blotting analysis; format: functional, cell-based; conditions: dose 0.1-10 nM
[7] = biological target: Proto-oncogene tyrosine-protein kinase Src (Homo sapiens) (UniProt P12931); experiment: Inhibition of SRC phosphorylation in human A549/Taxol cells at 0.1 to 10 nM incubated for 24 hrs by Western blotting analysis; format: cell-based; conditions: dose 0.1-10 nM
[8] = tested on: A549/TR; experiment: Inhibition of cell migration in human A549/Taxol cells at 0.1 to 10 nM incubated for 48 hrs by wound healing assay; format: functional, cell-based; conditions: dose 0.1-10 nM
[9] = biological target: T2, Cytochrome P450 1A2 (Homo sapiens, UniProt P05177); experiment: Inhibition of recombinant human CYP1A2 using 7-ethyl-O-resorufin as substrate incubated for 30 mins in presence of NADPH by EROD assay; format: ADME
T2 sequence (P05177 whole entry): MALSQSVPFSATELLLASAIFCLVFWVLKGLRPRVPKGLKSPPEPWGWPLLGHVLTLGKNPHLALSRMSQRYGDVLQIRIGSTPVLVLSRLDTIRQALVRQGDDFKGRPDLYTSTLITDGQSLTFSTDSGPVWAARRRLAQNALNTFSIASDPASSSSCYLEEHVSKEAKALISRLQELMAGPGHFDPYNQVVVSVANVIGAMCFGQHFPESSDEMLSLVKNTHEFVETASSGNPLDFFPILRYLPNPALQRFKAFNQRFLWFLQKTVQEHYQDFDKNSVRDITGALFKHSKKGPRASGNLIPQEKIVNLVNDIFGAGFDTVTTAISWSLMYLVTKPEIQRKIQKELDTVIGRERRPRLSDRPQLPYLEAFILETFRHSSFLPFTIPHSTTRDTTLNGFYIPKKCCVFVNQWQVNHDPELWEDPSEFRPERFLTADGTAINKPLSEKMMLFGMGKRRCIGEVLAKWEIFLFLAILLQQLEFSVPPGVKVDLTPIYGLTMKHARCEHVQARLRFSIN

[10] = biological target: T3, Cytochrome P450 1A1 (Homo sapiens, UniProt P04798); experiment: Inhibition of recombinant human CYP1A1 using 7-ethyl-O-resorufin as substrate incubated for 30 mins in presence of NADPH by EROD assay; format: ADME
T3 sequence (P04798 whole entry): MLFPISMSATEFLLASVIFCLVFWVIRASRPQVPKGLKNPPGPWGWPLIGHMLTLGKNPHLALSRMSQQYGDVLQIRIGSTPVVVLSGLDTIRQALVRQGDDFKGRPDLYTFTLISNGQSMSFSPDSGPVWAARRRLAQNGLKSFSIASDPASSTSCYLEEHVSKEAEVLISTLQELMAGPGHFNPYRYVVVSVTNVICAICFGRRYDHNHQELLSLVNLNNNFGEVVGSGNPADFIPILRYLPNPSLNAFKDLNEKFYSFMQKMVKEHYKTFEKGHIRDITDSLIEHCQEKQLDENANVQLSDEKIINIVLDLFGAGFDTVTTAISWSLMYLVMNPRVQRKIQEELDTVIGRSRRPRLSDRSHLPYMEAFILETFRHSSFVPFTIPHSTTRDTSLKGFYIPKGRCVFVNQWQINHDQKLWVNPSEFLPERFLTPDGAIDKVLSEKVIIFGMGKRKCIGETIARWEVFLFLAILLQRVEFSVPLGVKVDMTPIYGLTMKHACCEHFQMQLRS

[11] = biological target: T1, von Hippel-Lindau disease tumor suppressor/Cytochrome P450 1B1; experiment: PROTAC activity at VHL/CYP1B1 in human A549/Taxol cells assessed as reduction in CYP1B1 level by Western blotting analysis; format: ADME, cell-based
[12] = biological target: T4, Cytochrome P450 1B1 (Homo sapiens, UniProt Q16678); experiment: Inhibition of recombinant human CYP1B1 using 7-ethyl-O-resorufin as substrate incubated for 30 mins in presence of NADPH by EROD assay; format: ADME
T4 sequence (Q16678 whole entry): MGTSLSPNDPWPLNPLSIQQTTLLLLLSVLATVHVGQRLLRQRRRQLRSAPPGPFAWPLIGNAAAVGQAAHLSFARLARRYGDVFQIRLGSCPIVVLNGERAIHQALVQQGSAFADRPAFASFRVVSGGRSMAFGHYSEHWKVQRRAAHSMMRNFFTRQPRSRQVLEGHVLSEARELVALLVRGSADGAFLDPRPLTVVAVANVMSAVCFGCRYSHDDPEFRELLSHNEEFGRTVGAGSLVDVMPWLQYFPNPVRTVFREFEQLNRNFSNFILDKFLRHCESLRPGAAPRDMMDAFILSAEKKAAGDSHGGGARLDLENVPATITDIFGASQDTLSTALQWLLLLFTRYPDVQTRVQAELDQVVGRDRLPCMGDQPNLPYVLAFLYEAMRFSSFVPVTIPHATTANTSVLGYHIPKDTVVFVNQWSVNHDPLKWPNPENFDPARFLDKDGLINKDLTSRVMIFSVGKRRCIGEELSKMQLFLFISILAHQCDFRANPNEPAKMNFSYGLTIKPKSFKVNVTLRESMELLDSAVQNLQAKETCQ

[13] = tested on: A549/TR; experiment: Inhibition of epithelial-to-mesenchymal transition in human A549/Taxol cells assessed as reduction in CYP1B1 expression at 0.1 to 10 nM incubated for 24 hrs by immunoblot analysis; format: functional, cell-based; conditions: dose 0.1-10 nM

T1 sequence (P40337 whole entry, one chain of several): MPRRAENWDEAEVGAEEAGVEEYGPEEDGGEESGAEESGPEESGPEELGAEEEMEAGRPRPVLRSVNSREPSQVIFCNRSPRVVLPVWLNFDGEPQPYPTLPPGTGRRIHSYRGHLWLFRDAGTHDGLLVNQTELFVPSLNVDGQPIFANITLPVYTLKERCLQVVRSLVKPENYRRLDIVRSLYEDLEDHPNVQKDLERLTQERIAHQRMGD
Protein cereblon/Cytochrome P450 1B1, sequence (Q96SW2 whole entry, one chain of several): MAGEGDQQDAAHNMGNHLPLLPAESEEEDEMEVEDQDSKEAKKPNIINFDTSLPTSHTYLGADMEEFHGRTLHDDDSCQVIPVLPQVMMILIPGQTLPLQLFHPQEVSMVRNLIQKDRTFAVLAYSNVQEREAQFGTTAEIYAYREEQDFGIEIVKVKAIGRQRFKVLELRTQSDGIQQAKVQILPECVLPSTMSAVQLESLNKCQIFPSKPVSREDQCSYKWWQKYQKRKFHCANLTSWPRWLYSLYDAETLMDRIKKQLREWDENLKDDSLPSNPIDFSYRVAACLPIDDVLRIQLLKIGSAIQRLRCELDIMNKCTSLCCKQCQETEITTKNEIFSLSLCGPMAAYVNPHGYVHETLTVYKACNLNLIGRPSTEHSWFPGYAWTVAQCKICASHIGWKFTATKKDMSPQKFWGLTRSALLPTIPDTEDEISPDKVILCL
Proto-oncogene tyrosine-protein kinase Src (Homo sapiens), sequence (P12931 2-536 limits assumed): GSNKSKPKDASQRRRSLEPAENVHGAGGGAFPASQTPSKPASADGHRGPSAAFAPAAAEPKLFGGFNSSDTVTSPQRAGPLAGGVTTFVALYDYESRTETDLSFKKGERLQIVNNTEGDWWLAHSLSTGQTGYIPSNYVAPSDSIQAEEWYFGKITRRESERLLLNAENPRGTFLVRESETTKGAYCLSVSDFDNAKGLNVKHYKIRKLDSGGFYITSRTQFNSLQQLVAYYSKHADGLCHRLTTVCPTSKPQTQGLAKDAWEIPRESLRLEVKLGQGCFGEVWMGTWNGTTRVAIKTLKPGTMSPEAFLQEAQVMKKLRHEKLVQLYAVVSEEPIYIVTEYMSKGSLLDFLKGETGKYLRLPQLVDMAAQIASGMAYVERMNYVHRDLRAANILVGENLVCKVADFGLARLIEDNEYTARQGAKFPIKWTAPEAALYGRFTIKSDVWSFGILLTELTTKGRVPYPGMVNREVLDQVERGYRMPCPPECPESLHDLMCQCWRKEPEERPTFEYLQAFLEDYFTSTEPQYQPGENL

- Activity [1]: Not Active
- fold change (FC) [4]: 1
- fold change (FC) [5]: 0.8
- inhibition [7]: Active
- IC50 [9]: 3910 nM
- IC50 [10]: 279 nM
- Activity [11]: Not Active
- IC50 [12]: 11.9 nM
Structure (SMILES): Clc1ccc(Nc2nc(-c3nc(-c4ccccc4)cs3)cs2)cc1
- Activity [2]: inactive
- Activity [3]: inactive
- Activity [6]: Active
- inhibition [8]: inactive
- inhibition [13]: inactive
